Laboratory results as given in paper PMC10954734, “Structure of antiviral drug bulevirtide bound to hepatitis B and D virus receptor protein NTCP” (Nature Communications, 2024).

Key:
[1] = tested on: Gly158Arg Common squirrel monkey NTCP; settings: ref [54]; cited from earlier work
Source text: (§1) We aligned the sequence of human NTCP to that of Cynomolgus monkey and Common squirrel monkey, which are representatives of the Old and New World monkeys, respectively (Fig. 6a and Supplementary Fig. 6).

Gly158Arg human NTCP = settings: ref [54]; cited from earlier work
Source text: as §1

human NTCP = biological target: T1, human NTCP (Homo sapiens, UniProt Q14973); assay: preS1-AX568 binding to HEK-NTCP cells (and its inhibition by TC); assay type: cell-based; settings: preincubation with 250 µM TC
T1 construct: The full-length wild-type human NTCP gene (UniProt ID: Q14973); expressed in transfected cells
T1 sequence (Q14973 1-349): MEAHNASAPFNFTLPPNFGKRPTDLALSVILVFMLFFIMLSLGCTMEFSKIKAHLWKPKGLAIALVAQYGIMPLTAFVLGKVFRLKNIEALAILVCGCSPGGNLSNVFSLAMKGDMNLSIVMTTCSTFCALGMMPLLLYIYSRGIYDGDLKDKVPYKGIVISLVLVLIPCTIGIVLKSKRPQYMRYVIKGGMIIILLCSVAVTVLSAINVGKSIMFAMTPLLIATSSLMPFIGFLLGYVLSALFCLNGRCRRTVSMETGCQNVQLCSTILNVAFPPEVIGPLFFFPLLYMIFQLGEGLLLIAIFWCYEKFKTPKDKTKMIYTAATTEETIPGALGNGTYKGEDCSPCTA
Procedure: Human embryonic kidney Flp-In T-Rex 293 cells (Thermo Fisher Scientific, R78007, hereafter referred to as non-NTCP expressing HEK293 cells) stably expressing the human NTCP protein were generated according to the manufacturer’s guidelines as reported before[62] and are hereafter referred to as HEK-NTCP cells. […] For induction of NTCP expression, HEK-NTCP cells were incubated with 1 μg/mL tetracycline (Carl Roth, HP63.1)[62]. […] Inhibitor preincubation was performed over 5 min at 37 °C, consistent with previously published data[64]. Quantification of relative fluorescence was assessed at 570 nm excitation and 615 nm emission on a fluorescence microplate reader (TECAN Life Sciences).

[2] = tested on: SVPs from patient ID1 (HBV GtD); assay: Binding of nanodisc-reconstituted NTCP-eYFP to SVPs of patient ID1 (GtD); settings: 25–100 nM
Procedure: (§2) The lipids were then mixed with detergent-purified NTCP and incubated at room temperature for 5 min with gentle agitation. Next, membrane scaffold protein (MSP1D1) was added to the mixture and incubated for 20 min at room temperature. […] Bio-Beads were removed by passing through a gravity column (Bio-Rad), and the mixture was briefly spun at 4000 × g at 4 °C to remove excess lipids. […] Peak fractions containing nanodisc-reconstituted NTCP were collected and concentrated.
(§3) Subviral particles (SVPs) were isolated from plasma of two chronic HBV-infected patients by three consecutive ultracentrifugation steps according to published protocols[13]. Briefly, SVP were separated from virions using rate zonal ultracentrifugation through a sucrose density gradient. SVP-containing fractions were pooled and further purified using caesium chloride (CsCl) flotation ultracentrifugation. Pooled SVP-fractions were further purified using a second sucrose density gradient and concentrated by ultrafiltration. […] For fluorescence measurement, 100 μL HBS buffer was added to each well and the fluorescence intensity of eYFP was detected at 485 nm excitation and 535 nm emission on a fluorescence microplate reader (TECAN Life Sciences).

[3] = tested on: SVPs from patient K826 (HBV GtA); assay: Binding of nanodisc-reconstituted NTCP-eYFP to SVPs of patient K826 (GtA); settings: 25–100 nM
Procedure: as §2, §3

Compound	TC transport, effect of Gly158Arg mutation [1]	TC transport, effect of Gly158Arg mutation (Gly158Arg human NTCP)	block of preS1-AX568 binding to NTCP (in words) (human NTCP)	binding to GtD SVPs (in words) [2]	binding to GtA SVPs (in words) [3]
C[C@H](CCC(=O)NCCS(=O)(=O)O)[C@H]1CC[C@H]2[C@@H]3[C@H](O)C[C@@H]4C[C@H](O)CC[C@]4(C)[C@H]3C[C@H](O)[C@]12C [TC, taurocholic acid]	maintaining the transport activity of NTCP for TC	maintaining the transport activity of NTCP for TC	can be blocked		
NTCP: nanodisc-reconstituted, eYFP-labeled wild-type human NTCP				concentration-dependent binding	concentration-dependent binding
